Key:
[1] = test system: SAGPY (Sagittaria pygmaea); assay: Flooded paddy, preemergence weed control; type: in vivo, L.; conditions: rated 3-4 weeks after treatment, 0-9 rating scale
In short: (§1)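 Seeds or propagules were planted in the top 0.5 cm of silt loam soil and kept flooded 1.5–3 cm above the surface throughout, then held in the greenhouse. Injury was rated visually on a 0–9 scale against untreated controls, covering stand, vigor, malformation, size and chlorosis.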

[2] = test system: TRZAWR (Wheat, Winter, cv Riband); assay: Postemergence herbicidal evaluation; type: in vivo, Triticum aestivum
In short: (§2)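 Visual 0–9 injury scores versus control plants, covering stand, vigour, malformation, size, chlorosis and general appearance, taken four to five weeks post-spray and averaged over replicate tests. Plants were sprayed at roughly two weeks old and held on greenhouse benches.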

[3] = test system: IPOHE (Ipomoea hederacea); assay: Postemergence herbicidal evaluation; type: in vivo, (L.) Jacq.
In short: as §2

[4] = test system: MOOVA (Monochoria vaginalis); assay: Flooded paddy, preemergence weed control; type: in vivo, Presl.; conditions: rated 3-4 weeks after treatment, 0-9 rating scale
In short: as §1

GALAP (Galium aparine) [5] = assay: Postemergence herbicidal evaluation; type: in vivo
In short: as §2

[6] = test system: AMBEL (Ambrosia artemisifolia); assay: Preemergence herbicidal evaluation; type: in vivo, L.; conditions: preemergence, rated 4-5 weeks after treatment
In short: (§3)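 Rating 0–9, visual, vs control; 4–5 wk after spraying seeded cups with compound in aq. acetone; conventional greenhouse care.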

[7] = test system: CHEAL (Chenopodium album); assay: Preemergence herbicidal evaluation; type: in vivo, L.; conditions: preemergence, rated 4-5 weeks after treatment
In short: as §3

[8] = test system: CASOB (Cassia obtusifolia); assay: Preemergence herbicidal evaluation; type: in vivo, L.; conditions: preemergence, rated 4-5 weeks after treatment
In short: as §3

CYPIR (Cyperus iria) = assay: Flooded paddy, preemergence weed control; type: in vivo; conditions: rated 3-4 weeks after treatment, 0-9 rating scale
In short: as §1

SETVI (Setaria viridis) [9] = assay: Postemergence herbicidal evaluation; type: in vivo, (L.) Beau
In short: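 ~2-wk seedlings; spray 0.0040–1.000 kg/ha in 50/50 acetone/water + 0.5% TWEEN 20, 40 psi nozzle. Greenhouse hold; visual 0–9 rating vs control at 4–5 wk; multiple tests averaged.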

[10] = test system: CYPSE (Cyperus serotinus); assay: Flooded paddy, preemergence weed control; type: in vivo, Rottb.; conditions: rated 3-4 weeks after treatment, 0-9 rating scale
In short: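 Seeds or propagules were planted 0.5 cm deep in silt loam and flooded to 1.5–3 cm. Compounds in 50/50 v/v aqueous/acetone were pipetted into the flood water at about 0.0080 to 0.1250 kg/ha. After 3–4 weeks in the greenhouse, effect was rated visually on a 0–9 scale versus untreated control.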

ORYSAT (Rice, Tebonnet) [11] = assay: Preemergence herbicidal evaluation; type: in vivo, Oryza sativa, (L.) Tebonnet; conditions: preemergence, rated 4-5 weeks after treatment
GALAP (Galium aparine) [12] = assay: Preemergence herbicidal evaluation; type: in vivo; conditions: preemergence, rated 4-5 weeks after treatment
In short: as §3

SETVI (Setaria viridis) [13] = assay: Preemergence herbicidal evaluation; type: in vivo, (L.) Beau; conditions: preemergence, rated 4-5 weeks after treatment
In short: as §3

[14] = test system: ECHCG (Echinochloa crus-galli); assay: Preemergence herbicidal evaluation; type: in vivo, (L.) Beau; conditions: preemergence, rated 4-5 weeks after treatment
In short: as §3

[15] = test system: ABUTH (Abutilon theophrasti); assay: Postemergence herbicidal evaluation; type: in vivo, Medic.
In short: as §2

[16] = test system: AMBEL (Ambrosia artemisifolia); assay: Postemergence herbicidal evaluation; type: in vivo, L.
In short: as §2

[17] = test system: CHEAL (Chenopodium album); assay: Postemergence herbicidal evaluation; type: in vivo, L.
In short: as §2

[18] = test system: CASOB (Cassia obtusifolia); assay: Postemergence herbicidal evaluation; type: in vivo, L.
In short: as §2

ORYSAT (Rice, Tebonnet) [19] = assay: Postemergence herbicidal evaluation; type: in vivo, Oryza sativa, (L.) Tebonnet
In short: as §2

Structure (SMILES): Cn1c(C(F)(F)F)cc(=O)n(-c2ccc3snc(C4OCCS4)c3c2)c1=O (centres unmarked) [Compound 31, 1-methyl-3-[3-(1,3-oxathiolan-2-yl)-1,2-benzisothiazol-5-yl]-6-(trifluoromethyl)uracil]
- herbicidal rating, SAGPY ([1]; rate 0.0080 kg/ha): 0.0
- herbicidal rating, SAGPY ([1]; rate 0.0320 kg/ha): 9.0
- herbicidal rating, SAGPY ([1]; rate 0.1250 kg/ha): 9.0
- Postemergence herbicidal rating, TRZAWR ([2]; rate 0.0320 kg/ha): 5.0
- Postemergence herbicidal rating, TRZAWR ([2]; rate 0.0620 kg/ha): 5.5
- Postemergence herbicidal rating, IPOHE ([3]; rate 0.0320 kg/ha): 9.0
- Postemergence herbicidal rating, IPOHE ([3]; rate 0.0620 kg/ha): 9.0
- herbicidal rating, MOOVA ([4]; rate 0.0080 kg/ha): 5.0
- herbicidal rating, MOOVA ([4]; rate 0.0320 kg/ha): 9.0
- herbicidal rating, MOOVA ([4]; rate 0.1250 kg/ha): 9.0
- Postemergence herbicidal rating, GALAP (GALAP (Galium aparine) [5]; rate 0.0320 kg/ha): 6.0
- Postemergence herbicidal rating, GALAP (GALAP (Galium aparine) [5]; rate 0.0620 kg/ha): 9.0
- AMBEL preemergence herbicidal rating ([6]; Rate 0.0620 kg/ha): 9.0
- AMBEL preemergence herbicidal rating ([6]; Rate 0.1250 kg/ha): 9.0
- AMBEL preemergence herbicidal rating ([6]; Rate 0.2500 kg/ha): 9.0
- CHEAL preemergence herbicidal rating ([7]; Rate 0.0620 kg/ha): 9.0
- CHEAL preemergence herbicidal rating ([7]; Rate 0.1250 kg/ha): 9.0
- CHEAL preemergence herbicidal rating ([7]; Rate 0.2500 kg/ha): 9.0
- CASOB preemergence herbicidal rating ([8]; Rate 0.0620 kg/ha): 5.0
- CASOB preemergence herbicidal rating ([8]; Rate 0.1250 kg/ha): 8.0
- CASOB preemergence herbicidal rating ([8]; Rate 0.2500 kg/ha): 9.0
- herbicidal rating, CYPIR (CYPIR (Cyperus iria); rate 0.0080 kg/ha): 0.0
- herbicidal rating, CYPIR (CYPIR (Cyperus iria); rate 0.0320 kg/ha): 9.0
- herbicidal rating, CYPIR (CYPIR (Cyperus iria); rate 0.1250 kg/ha): 9.0
- Postemergence herbicidal rating, SETVI (SETVI (Setaria viridis) [9]; rate 0.0320 kg/ha): 3.0
- Postemergence herbicidal rating, SETVI (SETVI (Setaria viridis) [9]; rate 0.0620 kg/ha): 7.0
- herbicidal rating, CYPSE ([10]; rate 0.0320 kg/ha): 4.0
- herbicidal rating, CYPSE ([10]; rate 0.1250 kg/ha): 5.0
- ORYSAT preemergence herbicidal rating (ORYSAT (Rice, Tebonnet) [11]; Rate 0.0620 kg/ha): 4.0
- ORYSAT preemergence herbicidal rating (ORYSAT (Rice, Tebonnet) [11]; Rate 0.1250 kg/ha): 7.7
- ORYSAT preemergence herbicidal rating (ORYSAT (Rice, Tebonnet) [11]; Rate 0.2500 kg/ha): 8.5
- GALAP preemergence herbicidal rating (GALAP (Galium aparine) [12]; Rate 0.0620 kg/ha): 5.0
- GALAP preemergence herbicidal rating (GALAP (Galium aparine) [12]; Rate 0.1250 kg/ha): 9.0
- GALAP preemergence herbicidal rating (GALAP (Galium aparine) [12]; Rate 0.2500 kg/ha): 9.0
- SETVI preemergence herbicidal rating (SETVI (Setaria viridis) [13]; Rate 0.0620 kg/ha): 7.7
- SETVI preemergence herbicidal rating (SETVI (Setaria viridis) [13]; Rate 0.1250 kg/ha): 9.0
- SETVI preemergence herbicidal rating (SETVI (Setaria viridis) [13]; Rate 0.2500 kg/ha): 9.0
- ECHCG preemergence herbicidal rating ([14]; Rate 0.0620 kg/ha): 4.7
- ECHCG preemergence herbicidal rating ([14]; Rate 0.1250 kg/ha): 8.7
- ECHCG preemergence herbicidal rating ([14]; Rate 0.2500 kg/ha): 9.0
- Postemergence herbicidal rating, ABUTH ([15]; rate 0.0320 kg/ha): 9.0
- Postemergence herbicidal rating, ABUTH ([15]; rate 0.0620 kg/ha): 9.0
- Postemergence herbicidal rating, AMBEL ([16]; rate 0.0320 kg/ha): 9.0
- Postemergence herbicidal rating, AMBEL ([16]; rate 0.0620 kg/ha): 9.0
- Postemergence herbicidal rating, CHEAL ([17]; rate 0.0320 kg/ha): 9.0
- Postemergence herbicidal rating, CHEAL ([17]; rate 0.0620 kg/ha): 9.0
- Postemergence herbicidal rating, CASOB ([18]; rate 0.0320 kg/ha): 5.0
- Postemergence herbicidal rating, CASOB ([18]; rate 0.0620 kg/ha): 8.0
- Postemergence herbicidal rating, ORYSAT (ORYSAT (Rice, Tebonnet) [19]; rate 0.0320 kg/ha): 3.5
- Postemergence herbicidal rating, ORYSAT (ORYSAT (Rice, Tebonnet) [19]; rate 0.0620 kg/ha): 5.5
